Some results are limits rather than exact numbers.

What is called melting point is the temperature, or range, at which the solid turns liquid.

Regarding `NCCCCCNc1cccc2c1C(=O)c1c(NCCCCCN)cccc1C2=O`, the melting point was 115 to 116 °C.
As for `CCOC(=O)c1c(N)c2c(n1C)N=CCN2`, the melting point is 119 to 121 °C.
Take `Cc1cc2c(cc1C(C)O)OCO2` (configuration not stated): the melting point lay within 61 to 62 °C.
The same measure for `O=C(Cc1ccc2[nH]cc(CCN3C(=O)c4ccccc4C3=O)c2c1)NCc1ccccc1`: 165 to 166 °C; for `Nc1cc(Cl)nn1-c1c(Cl)cc(C(F)(F)F)cc1Cl`: 128 to 129 °C; for `CC1(C(F)(F)F)C(=O)NC(=O)NC1=O`: 205 to 206 °C.
In the case of `CC1(C)CC(=O)C1(Br)CC(Cl)(Cl)Cl` (configuration not stated) it was 46 to 49 °C; in that of `CC(C)(C)Oc1c(-c2ccc(S(C)(=O)=O)cc2)cnn(-c2cccc(Cl)c2)c1=O`, 232 to 235 °C.
The same measure for `O=S(=O)(c1ccc(N2CCCCC2)cc1)N1CCCC1=S`: 195 to 200 °C; for `CC(C(O)c1ccc(OC(=O)c2ccc(CNC(C)(C)C)cc2)cc1)N1CCC(O)(c2ccccc2)CC1` (configuration not stated): 195 to 197 °C.
For the compound `O=c1oc2ccccc2c2c1CNCC2`, the melting point lay within 125 to 128 °C.
In the case of `C=CCNC(=O)N(N(CCCl)S(C)(=O)=O)S(C)(=O)=O` it was 105 to 106 °C; in that of `CNS(=O)(=O)C(=O)CCOc1cc(Oc2nn(C)c(C(F)(F)F)c2Cl)ccc1[N+](=O)[O-]`, 170 to 172 °C.
With `N#Cc1cc(N)ccc1N1CCC(N2CCCCC2)CC1`, the melting point fell in the range of 110 to 112 °C.
The same measure for `NC(=O)c1sc2nc(N3CCC(NCC(O)c4cccc5c4OCO5)CC3)cc(C(F)(F)F)c2c1N` (configuration not stated): 221 to 223 °C.
The same measure for `CNc1ccc(C=CC(=O)c2ccc(NC)cc2)cc1`: 150 to 151 °C; for `CC(C)Cn1nc(-c2ccccc2)cc(C(=O)O)c1=O`: 120 to 121 °C.
In the case of `CCCOc1ccc(-c2c(C)c(=O)cc(-c3ccccc3)n2-c2ccccc2)cc1` it was 165 to 168 °C.
In turn, `CC(C)N(CCCC1CCN(CCNC(=O)N2c3ccccc3C(=O)Nc3cccnc32)CC1)C(C)C` registered a melting point of 184 °C.
The compound `CCC1(CCCCN2CCN(c3cccc(Cl)c3)CC2)C(=O)Nc2ccc(C)cc21` (configuration not stated) displayed a melting point of 142 to 144 °C.
Compound `CSc1ccc2c(c1)N=CC(SC)C2=O` (configuration not stated) came in with a melting point of 90 to 92 °C.
The same measure for `Cc1cnc2c(NC(=O)c3c(Cl)cccc3Cl)cccc2c1N1CCN(C)C1=O`: 288 °C.
The same measure for `CC1=C(C(=O)OCC[Si](C)(C)C)C(c2cccc([N+](=O)[O-])c2)C(C(=O)OCC[Si](C)(C)C)=C(C)N1`: 120 °C.
In turn, `COc1ccc(C=O)cc1-n1nnnc1C` yielded a melting point of 157 °C.
In the case of `CCOC(=O)NN=C(c1ccc(Cl)cc1)c1ccc(CSC)cc1` it was 105 to 109 °C; in that of `COC1=CC(=O)c2c(C)cccc2C1=O`, 138 to 140 °C.
In the case of `O=C1NC(=O)C(Cc2ccc(OCCON=Cc3ccc(-c4ccccc4)nc3)cc2)S1` (configuration not stated), the melting point is 102 to 104 °C.
Regarding `CC(C)Cc1nc(N)c(C(=O)c2c[nH]c3ccccc23)[nH]c1=O`, the melting point is 228 to 230 °C.
In the case of `N#CCC(=C(C#N)C#N)c1ccccc1` it was 92 to 98 °C; in that of `CN(C)c1ccc(C2(c3ccc(N(C)C)cc3N(C)C)OC(=O)c3ccccc32)c(N(C)C)c1`, 186 to 188 °C; in that of `C[C@H](NC(=O)C[C@@H](CCBr)c1ccc(F)cc1)c1ccccc1`, 156 to 158 °C.
In the case of `Cc1ccc(CS(=O)(=O)c2nc3cscc3[nH]2)nc1` it was 163 °C; in that of `CNc1ccc2c(c1)N1CCCN=C1S2`, 184 °C; in that of `O=C(Nc1ccnn1-c1c(F)c(F)c(C(F)(F)F)c(F)c1F)C(Cl)Cl`, 112 to 114 °C.
Regarding `CCCc1c(Cl)c2cc(Br)ccc2oc1=O`, the melting point was in the range of 96 to 97 °C.
`COC(=O)CCCCCOC1OC(CO)C(O)C(O)C1NC(C)=O` (configuration not stated) displayed a melting point of 154 to 155 °C.
In the case of `[N-]=[N+]=NC1=CN(CC(F)(F)F)c2ccccc2C(c2ccccc2)=N1` it was 159 to 160 °C; in that of `O=C(NC1CCCC1)c1ccc(-c2ccc3nnn(Cc4ccc5ncccc5c4)c3n2)cc1F`, 166 to 168 °C; in that of `N#CC1=Cc2ccccc2OC1`, 44 to 45 °C.
In turn, `Oc1ccc(F)c(-c2c(-c3ccccc3)cnc3c(C(F)(F)F)cccc23)c1` showed a melting point of 85 °C.
In the case of `O=C(OCc1ccccc1)[C@@H]1COC(c2ccccc2OCc2ccccc2)=N1` it was 69 to 71 °C; in that of `CN(C)CCCCc1ccc(CO)o1`, 24 °C.
In the case of `NNC(=O)CCCCCCCCOC1OC(CO)C(O)C(O)C1O` (configuration not stated) it was 194 °C; in that of `CCCC(NS(=O)(=O)c1ccc(Cl)cc1)C(=O)NNC(=S)NC` (configuration not stated), 191 to 195 °C.
In the case of `COC(=O)C1=C(C)NC(C)=C(C(=O)OCCCCCCCCBr)C1c1cccc([N+](=O)[O-])c1` (configuration not stated) it was 115 °C; in that of `O=c1oc2ccc(O)cc2c(O)c1-c1ccccc1`, 261 to 263 °C; in that of `CC(=O)c1ccc(NC2=Nc3ccc(Cl)cc3CS2)cc1`, 174 to 175 °C.
`COC(=O)C1Cc2c(n(C)c3ccccc23)CN1C(=S)SC` (configuration not stated): the melting point fell in the range of 170 to 171 °C.
In turn, `O=S1(=O)c2cccc3c(Cl)ccc(c23)N1CCCN1CC=C(c2ccccc2)CC1` had a melting point of 135 °C.
In the case of `Cc1nc(-c2cccnc2)sc1-c1ccnc(Nc2ccc3c(c2)OCO3)n1` it was 187 to 188 °C; in that of `CCc1cccc(CC(=O)O)c1OCCCc1cn(-c2ccc(Cl)cn2)nc1C(C)C`, 142 to 143 °C.
In the case of `O[C@@H]1CCCC[C@H]1Nc1nc(Cl)ncc1Cl` (relative stereo) it was 139 to 142 °C.
The same measure for `CCCCc1nc(C)c(CCC(=S)N(C)C)c(=O)n1Cc1ccc(-c2ccccc2-c2nnn[nH]2)cc1`: 76.2 to 81.2 °C; for `CC(C)(C)C(=O)c1cnn2c1NCCC2`: 169 to 170 °C.
`Cc1cc(OCC(O)CCl)c2cn[nH]c2c1` (configuration not stated) had a melting point of 171 to 172 °C.
In the case of `Cn1cc(-c2cccc(C(F)(F)F)c2)c(=O)o1` it was 132 to 134 °C.
The same measure for `Fc1ccc(-c2nc3ccccn3c2-c2ccnc(-c3ccc(CN4CCCC4)cc3)c2)cc1F`: 155 °C; for `O=C1CCCc2nc3ccccc3c(NCc3cccc(Cl)c3)c21`: 138 to 140 °C; for `C(=C\c1nc(COc2ccc(CCCn3cnc4ccccc43)cc2)co1)/c1ccccc1`: 115 to 117 °C.
In the case of `CCc1nn2c(N)cc(C)nc2c1S(=O)(=O)c1ccc(OC)cc1`, the melting point lay in the range of 186 to 188 °C.
For `CCCCOC(=O)Nc1cccc(C(C)=O)c1`, the melting point fell in the range of 59 to 60 °C.
In the case of `C=CCSc1cc(C(=O)O)cc(N)c1C(=O)c1ccccc1` it was 152 to 154 °C.
`Clc1cc(Cl)c2nc3c4ccccc4c4ccccc4c3nc2c1` displayed a melting point of 221 to 222 °C.
In the case of `COc1nc(OC)c(SC)c(OC)n1` it was 90.5 to 91 °C; in that of `Cc1cc(C(N)=O)ccc1NC1CCN(Cc2ccccc2)CC1`, 156 to 158 °C.
The same measure for `COc1ccc(-n2c(-c3ccccc3)cc3c2CCCC3)cc1`: 132 to 133 °C; for `COc1ccc(-c2ccc3c(c2)S(=O)(=O)NC(C2CCCCC2)N3)c(OC)c1` (configuration not stated): 208 to 213 °C; for `Cn1nnnc1S(=O)CCCCS(=O)(=O)c1nnnn1C` (configuration not stated): 147 to 149 °C.
The same measure for `CS(=O)(=O)OCC1CN(c2ccc3ccccc3c2)C(=O)O1` (configuration not stated): 169 to 172 °C; for `CC(=O)Nc1cc([N+](=O)[O-])ccc1OCCCN`: 110 to 120 °C; for `CCN(C1CC(C)(C)Oc2ccc(OCc3ccccc3)cc21)S(C)(=O)=O` (configuration not stated): 104 to 106 °C.
`CC(=O)Nc1c(OCc2ccccc2)cc(Br)cc1N(C)C` returned a melting point of 177 °C.
The compound `CC(C)(C)[Si](O[C@@H]1CC(=O)C[C@H](O[Si](c2ccccc2)(c2ccccc2)C(C)(C)C)C1)(c1ccccc1)c1ccccc1` showed a melting point of 108 to 109 °C.
The same measure for `CN1C(=O)Cc2c(sc3ccccc23)S1(=O)=O`: 175 to 178 °C; for `O=C(C=Cc1ccc(N2CCCC2)cc1)c1ccc2c(c1)CCCC2`: 167 to 169 °C.
In the case of `COc1ccc2c(c1)C(=O)C1CCCCN1C2` (configuration not stated), the melting point lay within 117 to 119 °C.
In the case of `CNC(=O)Nc1snc(S(C)=O)c1C#N` (configuration not stated) it was 241 °C.
On to `CSc1ccc(CCC(C)=NO)cc1`, for which the melting point was found to be 71 °C.
As to `O=C(O)C1=C(c2ccccc2)C(c2ccccc2)OC1=O` (configuration not stated), the melting point is 116 to 117 °C.
In the case of `CCCCCCCCCCCCCCCCCCOc1cc(OCCCOc2ccc(S(C)=O)cc2)cc(C(=O)O)c1` (configuration not stated) it was 77 to 80 °C; in that of `O=C(O)c1ccc(Sc2ccc(OCc3ccc4ccccc4n3)cc2)cc1`, 195 to 197 °C.
In the case of `O=c1cc(S)sc2cc(N3CCOCC3)ccc12` it was more than 250 °C; in that of `O=C1C=C(OCc2ccccc2)CN1`, 147 to 148 °C; in that of `OC(CCCCBr)(c1ccc(F)cc1)c1ccc(F)cc1`, 55 °C.
In the case of `FC(F)c1cc(Cl)nc2c1cnn2C1CCCCO1` (configuration not stated) it was 93 °C; in that of `COc1ccc(C2(C#Cc3cccc(-c4noc(C)n4)c3)CCCC(=O)C2)cc1OC1CCCC1` (configuration not stated), 116 to 118 °C; in that of `COc1ccc2[nH]c(S(=O)Cc3ncc(C)c(N4CCOCC4)c3Cl)nc2c1` (configuration not stated), 147 to 148 °C.
With `O=C(CCCCCCS(=O)(=O)c1ccccc1)c1ncco1`, the melting point was 55 to 56 °C.
`Cc1sc2c(c1C(=O)CCCCl)C(=O)NCCC2`: the melting point is 113 to 115 °C.
In the case of `CC(=O)N(C)c1cc(-c2ccnc3c(C(=O)c4cccs4)cnn23)ccc1F` it was 165 to 167 °C.
In the case of `COc1ccc2[nH]c3cc(-c4ccccc4-c4ccccc4)c4c(c3c2c1)C(=O)NC4=O` it was 220 to 223 °C; in that of `CS(=O)(=O)c1ccc(C(CC2CCCC2)C(=O)O)cc1` (configuration not stated), 152 to 154 °C.
